{
  "source": "paper PMC4372538",
  "about": "“Advantages of the Phosphatidylserine-Recognizing Peptide PSP1 for Molecular Imaging of Tumor Apoptosis Compared with Annexin V” (PLoS ONE, 2015)",
  "key": {"PS liposomes": {"target": "PS liposomes", "assay": "SPR binding to PS liposomes", "description": "To compare the kinetics of annexin V and PSP1 peptide binding to PS liposomes, SPR spectroscopy was employed (Reichert Inc, NY, USA). PC and PS liposomes (0.8:0.2 PC:PS) were generated as previously described and were homogenously purified using a liposome mini-extruder with a 100 nm membrane filter, based on the manufacturer’s protocol (Avanti Polar Lipids). […] Briefly, phytosphingosine was immobilized by activating the carboxymethyl groups on dextran-coated chips (Reichert Life Sciences) through a reaction with N-hydroxysuccinimide (Sigma-Aldrich), followed by covalent bonding of the ligands to the chip surface via amide linkages and blocking of excess activated carboxyls with ethanolamine. The purified PS or PC liposomes were captured on the phytosphingosine layer at a flow rate of 5 μl/min in liposome immobilization buffer (10 mM Tris-HCl (pH 8.0), 100 mM NaCl, and 2 mM CaCl2). To use the PC-immobilized surface as a control, the injected PS or PC liposome volume was adjusted to an immobilization level of approximately 4000±200 RU. Different concentrations of the PSP1 peptide (0.313 to 5 μM) and annexin V (3.13 to 100 nM) in running buffer (10 mM Tris-HCl (pH 8.0), 100 mM NaCl, 2 mM CaCl2, and 62.5 μg/ml BSA) were allowed to flow over the surfaces bound to the immobilized liposomes for 3 min at a rate of 30 μl/min. The sensor surface was regenerated after each association and dissociation cycle by injecting 10 mM EDTA for 20 s, followed by 50 mM NaOH for 10 s. The interaction of the ligand and the analyte was analyzed using Scrubber 2 Biologic software (http://www.biologic.com.au/). The binding kinetics was assessed by determining the association (kon), dissociation (koff), and equilibrium (KD) constants.\nThe in vitro binding affinity of PSP1 and annexin V for PS was further examined using SPR analysis (Fig. 2). […] We immobilized PS liposomes on the surface of an SPR chip, applied a series of different concentrations of PSP1 or annexin V, and examined the binding kinetics. PS-specific binding was determined by subtracting binding responses to a PC liposome-coated surface from those obtained using a PS liposome-coated […] surface.\nFig 2 In vitro SPR analysis of PSP1 and annexin V binding to PS liposomes. (A) The indicated concentrations of PSP1 were injected onto the liposome-immobilized surface. Responses (RU) from the PC liposome-coated surface (reference) were subtracted from those from the PS:PC (2:8) liposome surface to monitor PS-specific binding. The equilibration binding constant (KD) and the association (Kon) and dissociation (Koff) rate constants were estimated using the Scrubber program. (B) Plots of the RU values of annexin V at the indicated concentrations."}, "apoptotic H460 cells [1]": {"system": "apoptotic H460 cells", "assay": "FACS binding to apoptotic H460 cells", "format": "cell-based, human", "settings": "FITC-labeled, etoposide 50 μM 22 hrs, 2, 10, 20, 50 μg/ml, binding buffer 10 mM Hepes pH 7.4, 150 mM NaCl ± 2 mM CaCl2, 4°C, 1 hr", "method": "The human lung cancer cell H460, which was obtained from the American Type Culture Collection (ATCC), was maintained in RPMI-1640 media supplemented with 10% heat-inactivated fetal bovine serum (FBS) and penicillin G/streptomycin at 37°C in a humidified atmosphere of 95% air and 5% CO2.\nTo induce apoptosis of lung tumor cells (H460), the cells (5×10^6 cell) were grown overnight and then treated with etoposide (50 μM) (Sigma) in serum-free media for 22 hrs, followed by washing with phosphate-buffered saline (PBS) and binding buffer (10 mM Hepes (pH 7.4), 150 mM NaCl, and 2 mM CaCl2).\nControl peptide (grey); FITC-NSSSVDK."}, "apoptotic H460 cells [2]": {"system": "apoptotic H460 cells", "assay": "confocal microscopy of binding to apoptotic H460 cells", "format": "cell-based, human"}, "[3]": {"system": "apoptotic tumor cells in H460 tumor-bearing mice", "assay": "in vivo fluorescence imaging of tumors after apoptosis induction", "parameters": "species or system BALB/c nude mice; human H460 tumor", "settings": "Cy7.5-labeled", "method": "Female nude mice (BALB/c nude; body weight, 20±3 g; n = 5) were housed in a specific pathogen-free environment at 22±2°C and 55±5% relative humidity with light. Tumors were generated by subcutaneously injecting H460 cells (5×10^6 cells) into the right shoulder of 6-wk-old female BALB/c nude mice and allowing them to grow for 3 weeks (size of 0.5 to 0.7 cm). For in vivo analysis of tumor targeting, the tumor-bearing mice were either treated or not treated with a single dose of camptothecin (10 mg/kg) 24 hrs prior to intravenous injection of Cy7.5-labeled PSP1, Cy7.5-annexin V or Cy7.5-labeled control peptide into the tail vein under inhalational anesthesia (1% (w/v) isoflurane in 2 L oxygen).\nIn vivo fluorescence images were taken at different time intervals after peptide injection (10 min, 1 h, 3 h, 6 h, and 12 h) using an eXplore Optix system (ART Advanced Research Technologies Inc., Montreal, Canada), which has excitation/emission wavelengths of 778 nm/805 nm. The obtained images were processed using eXplore Optix OptiView Software and normalized based on the baseline fluorescence, assessed for each mouse prior to peptide injection.\nFig 4 In vivo imaging of tumors after apoptosis induction. (A) Cy7.5-labelled PSP1peptide, control peptide, or annexin V was systematically injected into the tail vein of tumor-bearing nude mice treated with camptothecin 24 hrs before injection. The same amount of annexin V was also injected into non-camptothecin-treated tumor-bearing mice as a control. The homing of the peptides was examined after the indicated times using an optical imaging system. The white dotted circles indicate the tumors. (B) Histological examination of tumor tissues after homing of PSP1 and annexin V, performed under a fluorescence microscope. Tumor cell apoptosis was observed by TUNEL staining."}, "[4]": {"settings": "calcium-dependent; ref [9],[10]; cited from earlier work", "description": "(§1) The exposure of phosphatidylserine (PS) on the outer surface of the plasma membrane bilayer, an early biochemical event in apoptosis, is an attractive target for molecular imaging of dying cells. During chemo- and radiotherapy, subsequent necrosis also results in PS exposure due to disruption of the plasma membrane’s integrity. […] The stability and biodistribution of annexin V derivatives depend ..."}, "[5]": {"system": "necrotic and nonapoptotic cells with exposed anionic lipids", "settings": "under specific physiological or pathological conditions, ref [12], cited from earlier work", "description": "as §1"}, "[6]": {"settings": "PS:PC (2:8) liposomes, PC response subtracted, Tris-HCl pH 8.0, 2 mM CaCl2, Scrubber, value from picture"}},
  "note": "Entries after “also recorded” stand apart in the source; their conditions may differ. Like-named read-outs stand apart in the source and are kept apart here.",
  "data": [
    {"substance": "annexin V: endogenous 36-kDa human protein that binds to PS with nanomolar affinity; His-tagged, expressed in Escherichia coli BL-21", "values": [
      {"measurement": "Kd", "setting": "PS liposomes; PS liposomes, PC liposome response subtracted, Tris-HCl pH 8.0, 2 mM CaCl2, read-out: in vitro binding affinity (equilibrium binding constant)", "value": 3.1, "unit": "nM"},
      {"measurement": "equilibration binding constant (KD)", "setting": "PS liposomes; PS:PC (2:8) liposomes on phytosphingosine/CMDH chip, PC liposome response subtracted, 10 mM Tris-HCl pH 8.0, 100 mM NaCl, 2 mM CaCl2, 62.5 μg/ml BSA, PSP1 0.313 to 5 μM, annexin V 3.13 to 100 nM, 3 min, 30 μl/min, Scrubber 2, values from picture", "value": 3.15, "unit": "nM"},
      {"measurement": "association rate constant (Kon)", "setting": "PS liposomes; [6]", "value": "1.05±0.76×10^6 M^-1S^-1"},
      {"measurement": "dissociation rate constant (Koff)", "setting": "PS liposomes; [6]", "value": "1.75±1.28×10^-3 S^-1"},
      {"measurement": "binding to apoptotic H460 cells (FACS)", "setting": "apoptotic H460 cells [1]", "value": "specifically bound to apoptotic H460 cells in a concentration-dependent manner"},
      {"measurement": "binding to apoptotic H460 cells (FACS)", "setting": "apoptotic H460 cells [1]; listed as Annexin V", "value": "appeared to exhibit a greater ability to bind to apoptotic cells"},
      {"measurement": "apoptotic cell-specific signal (confocal microscopy)", "setting": "apoptotic H460 cells [2]; FITC-labeled, 20 μg/ml, apoptotic H460 (etoposide 50 μM), 4°C, 1 hr", "value": "significantly weaker at the same concentration"},
      {"measurement": "predicted sensitivity of annexin V over PSP1", "setting": "apoptotic H460 cells [2]; same concentration, predicted from KD ratio, molar concentration 1/16th and 0.7 FITC groups/molecule, not observed", "value": 150, "unit": "fold"},
      {"measurement": "duration of in vivo fluorescence signal in tumor region", "setting": "[3]; i.v. tail vein, camptothecin 10 mg/kg 24 hrs before, PSP1 10 μg/200 μl (23.16 μM), annexin V 100 μg/200 μl (14.3 μM)", "value": "more than 12 hrs"},
      {"measurement": "in vivo tumor homing, non-camptothecin-treated", "setting": "[3]; i.v., 100 μg/200 μl, non-camptothecin-treated tumor-bearing mice", "value": "did not home to the tumor region"},
      {"measurement": "in vivo tumor homing", "setting": "[3]; i.v., camptothecin-treated H460 tumor-bearing mice, n = 5, imaging 10 min to 12 h, PSP1 10 μg/200 μl, annexin V and control peptide 100 μg/200 μl", "value": "weak signals; also recorded: rapidly observed in the tumor region"},
      {"measurement": "PS binding affinity of annexin V", "setting": "[4]", "value": "binds to PS with nanomolar affinity in a calcium-dependent manner"},
      {"measurement": "specificity of annexin V for apoptotic cells", "setting": "[5]", "value": "not entirely specific for apoptotic cells"},
      {"measurement": "specificity of annexin V for apoptotic cells", "setting": "[5]; listed as Annexin V", "value": "targets necrotic as well as nonapoptotic cells with exposed anionic lipids"}
    ]}
  ]
}
